Measurements from patent US5972976A, “Aminostilbazole derivative and medicine” (priority 1994, dated 1999).
Values after ≈ are worked out from the molar mass of the structure shown. Read-outs that look alike come from different tables or passages of the source.

Columns and labels:
[1] = test system: KB (human nasopharynx carcinoma); assay: In vitro anticancer effect (MTT), KB cell line; type: cell-based; details: KB cells, 72 hours, read-out: IC50 (50% cell growth-inhibitory concentration)
Protocol: (§1) In Vitro anticancer effects on KB (human nasopharynx carcinoma), Colon 38 (mouse colon cancer), and WiDr (human colorectal cancer) cell lines
(§2) Each of KB, Colon 38, and WiDr cell lines were respectively cultured using 10% fetal calf serum-supplemented D-MEM medium (Nissui Pharmaceutical). Each monolayer of cells was exfoliated with a 50:50 (v/v) mixture of 0.25% trypsin and 0.02% ethylenediaminetetracetic acid and after inactivation of trypsin, the cells were collected by centrifuging at 800 rpm for 3 minutes and suspended in the same medium as above. Using a hemocytometer, the number of the cells in the suspension were counted. The suspension was diluted with the medium to 5×10^4 cells/ml and distributed to a 96-well flat-bottomed plate, 100 μl per well.
(§3) The test drug was first dissolved in dimethyl sulfoxide at a concentration of 2 mg/ml and diluted with the above medium to 20 μg/ml. Using this solution for the highest concentration, a doubling dilution series was prepared and 100 μl of each dilution was added to the above cell suspension.
(§4) The plate was then incubated under 5% CO2 -air at 37° C. for 72 hours. Then, a 5 mg/ml solution of MTT [3-(4,5-dimethylthiazol-2-yl)-2,5-diphenyltetrazolium bromide] was added to the plate, 30 μl per well and the reaction was carried out under 5% CO2 -air at 37° C. for 4 hours. After the reaction, the solution in each well was aspirated off and 100 μl/well of dimethyl sulfoxide was added. After 5 minutes of shaking, the absorbance at 540 nm was measured with a Multiscan (Titertek) and the 50% cell growth-inhibitory concentration (IC50) was calculated.

[2] = test system: Colon 38 (mouse colon cancer); assay: In vitro anticancer effect (MTT), Colon 38 cell line; type: cell-based; details: Colon 38 cells, 72 hours, read-out: IC50 (50% cell growth-inhibitory concentration)
Protocol: as §1, §2, §3, §4

[3] = test system: WiDr (human colorectal cancer); assay: In vitro anticancer effect (MTT), WiDr cell line; type: cell-based; details: WiDr cells, 72 hours, read-out: IC50 (50% cell growth-inhibitory concentration)
Protocol: as §1, §2, §3, §4

[4] = test system: mouse monocytic leukemia P-388 cell line; assay: In vivo anticancer activity against mouse monocytic leukemia P-388 cell line; set-up: species or system mouse (CDF1); details: oral, twice (following day and after 5 days)
Protocol: In vivo anticancer activity against mouse monocytic leukemia P-388 cell line
A suspension of tumor cells was transplanted intraperitoneally in CDF1 mice in a dose of 10^6 cells/animal. On the following dav and after 5 days, or twice, the test drug suspended in 0.5% methylcellulose solution was administered orally. The experiment was performed in 8-12 mice for each control group and 6 mice for each drug treatment group.
For evaluation, the median survival time in days was determined for each drug treatment group (T) and control group (C) and T/C (%) was calculated.

[5] = Acute toxicity, single oral administration; details: mouse, in vivo, mortality after 2 weeks, probit method
Protocol: Male 5-week-old CDF1 mice were used. After the compound of Example 3B or 34 was orally administered once, the mortality rate was investigated after 2 weeks and the LD50 value was calculated by the probit method. […] The high safety of the compound of the invention is obvious.

microtubule protein = assay: Microtubule polymerization-inhibitory activity; type: biochemical; details: porcine brain microtubule protein, 37° C., pH 6.8, 350 nm; read-out: 50% inhibitory concentration against microtubule protein polymerization
Protocol: Microtubule polymerization-inhibitory activity Microtubule polymerization-inhibitory activity
A microtubule protein (a mixed solution of microtubule protein and microtubule-bound protein) was purified from a crude porcine brain extract according to the method of Williams et al. [Method in Enzymology, 85, 36, 1982] to isolate and the microtubule polymerization inhibitory activity of the compound of the invention was studied. The microtubule protein solution was diluted to 4 mg/ml as purified microtubule protein with GTP (guanosine-5'-triphosphate)-added reaction buffer (pH 6.8) {100 mM MES [2-(N-morpholinoethanesulfonic acid], 0.5 mM MgCl2 -1 mM EGTA (ethylene glycol bis(β-aminoethyl ether)-N,N,N',N'-tetracetic acid), 1 mM GTP} under ice-cooling and after degassing in ice, the test drug was added. Using a spectrophotometer maintained at 37° C., the absorbance of the system at 350 nm was measured at 2-minute intervals for 30 minutes to construct a polymerization curve and the concentration corresponding to 50% inhibition of microtubule protein polymerization was calculated. As the test drug, the compound of Example 3A was used.

[6] = test system: WiDr tumor cells transplanted in nude mice; assay: Growth inhibitory activity against WiDr tumor cells transplanted in nude mice; type: in vivo; details: oral; for Growth inhibition rate at day 16 after initiation of administration: once daily
From the text: Growth inhibitory activity against WiDr tumor cells transplanted in nude mice The tumor subcutaneously subcultured in nude mice (BALB/c nu/nu, male) aged 5-7 weeks were excised. After removal of the skin and connective tissue around the tumor, the tumor mass was split to remove the central necrotic tissue and, then, cut into cubes with a 2 mm side. One cube was loaded into a grafting needle and transplanted subcutaneously in the right thoracic region of the nude mouse. The major and minor diameters of the tumor were measured with calipers and the tumor volume was calculated by means of Equation 1. Starting when the volume had reached about 100 mm^3, the mice were divided into 6 individuals per group and the test drug suspended in 0.5% methylcellulose solution was administered orally by gastric gavage once daily.
Volume=1/2×major diameter×(minor diameter)^2Equation 1
The tumor volume was determined by the above method at predetermined intervals. From the tumor volume thus calculated, the growth rate was calculated by means of Equation 2. Then, using Equation 3, the growth inhibition rate in each drug treatment group relative to the control group was calculated.
Growth rate=tumor volume at day n/tumor volume at initiation of administration Equation 2
Growth inhibition rate (%)=(1-growth rate in drug treatment group/growth rate in control group)×100 Equation 3
As the test compound, the compound of Example 3A was used.

[7] = test system: Colon-26 (mouse colon cancer) cells transplanted in mice; type: in vivo, mouse (BALB/c, male); details: oral, once daily for 8 days
Protocol: Anticancer activity against Colon-26 (mouse colon cancer) cells transplanted in mice
Using an injection syringe, Colon-26 cells cultured in vitro were transplanted subcutaneously in a dose of 5×10^5 /animal in the right thoracic region of BALB/c mice (5 weeks old, male). As in Test Example 3, the mice were divided into groups of 6 when the tumor volume had reached about 150 mm^3. Starting the following day, the test drug suspended in 0.5% methylcellulose solution was administered orally by gastric gavage once daily for 8 days. The tumor volume was measured at a predetermined interval by the same method as in Test Example 3 and the tumor growth inhibition rate in each drug treatment group relative to the control group was calculated. As the test compound, the compound of Example 3A was used.

tubulin = details: J. Med. Chem. 1991, 34, 2579; cited from earlier work

For `COc1ccc(S(=O)(=O)Nc2ccccc2/C=C/c2cccnc2)cc1` [Example 2 (trans), 3-[2-[2-[[(p-Methoxyphenyl)sulfonyl]amino]phenyl]ethenyl]pyridine], the IC50 [1] was 0.1 mg/L (≈ 0.273 µM), the IC50 [2] was 0.15 mg/L (≈ 0.409 µM) and the IC50 [3] was 0.09 mg/L (≈ 0.246 µM).
In the case of `COc1ccc(S(=O)(=O)Nc2ccccc2/C=C/c2cc[n+]([O-])cc2)cc1` [Example 20, (E)-4-[2-[2-[[(p-Methoxyphenyl)sulfonyl]amino]phenyl]ethenyl]pyridine 1-oxide], the “T/C (median survival time, treated/control)” value ([4]; 25 mg/kg) is reported as 135%, the “T/C (median survival time, treated/control)” value ([4]; 50 mg/kg) is reported as 115% and the “T/C (median survival time, treated/control)” value ([4]; 100 mg/kg) is reported as 180%. The “T/C (median survival time, treated/control)” value ([4]; 200 mg/kg) was 195%.
For `COc1ccc(S(=O)(=O)N(CCO)c2ccccc2/C=C/c2ccncc2)cc1` [Example 34, (E)-4-[2-[2-[N-(2-Hydroxyethyl)-N-[(p-methoxyphenyl)sulfonyl]amino]phenyl]ethenyl]pyridine], the “T/C (median survival time, treated/control)” value ([4]; 25 mg/kg) was 105%, the “T/C (median survival time, treated/control)” value ([4]; 50 mg/kg) was 124% and the “T/C (median survival time, treated/control)” value ([4]; 100 mg/kg) was 167%. For the same compound, the “T/C (median survival time, treated/control)” value ([4]; 200 mg/kg) was 210% and the LD50 at 336 h [5] was 754 mg/kg.
`COc1ccc(S(=O)(=O)Nc2ncccc2/C=C/c2ccccc2)cc1` [Example 1, (E)-2-[[(p-Methoxyphenyl)sulfonyl]amino]-3-(2-phenyl-ethenyl)pyridine] showed an IC50 [1] of 0.44 mg/L (≈ 1.2 µM), an IC50 [2] of 0.75 mg/L (≈ 2.05 µM) and an IC50 [3] of 0.45 mg/L (≈ 1.23 µM).
For `COc1ccc(S(=O)(=O)Nc2ccccc2/C=C/c2ccncc2)cc1.Cl` [Example 3B, (E)-4-[2-[2-[[(p-Methoxyphenyl)sulfonyl]amino]phenyl]ethenyl]pyridine Hydrochloride], the “T/C (median survival time, treated/control)” value ([4]; 25 mg/kg) was 116%, the “T/C (median survival time, treated/control)” value ([4]; 50 mg/kg) was 126% and the “T/C (median survival time, treated/control)” value ([4]; 100 mg/kg) was 168%. For the same compound, the “T/C (median survival time, treated/control)” value ([4]; 200 mg/kg) was 221% and the LD50 at 336 h [5] was 510 mg/kg.
For `COc1ccc(S(=O)(=O)N(CCO)c2ccccc2/C=C/c2cc[n+]([O-])cc2)cc1` [Example 49, (E)-4-[2-[2-[N-(2-Hydroxyethyl)-N-[(p-methoxyphenyl)sulfonyl]amino]phenyl]ethenyl]pyridine 1-oxide], the “T/C (median survival time, treated/control)” value ([4]; 100 mg/kg) was 185% and the “T/C (median survival time, treated/control)” value ([4]; 200 mg/kg) was 220%.
Compound `COc1ccc(S(=O)(=O)Nc2ccccc2/C=C/c2ccncc2)cc1` [Example 3A, (E)-4-[2-[2-[[(p-Methoxyphenyl)sulfonyl]amino]phenyl]ethenyl]pyridine] has an IC50 [1] of 0.0026 mg/L (≈ 0.0071 µM), an IC50 [2] of 0.0031 mg/L (≈ 0.00846 µM) and an IC50 [3] of 0.0025 mg/L (≈ 0.00682 µM). For the same compound, the IC50 (microtubule protein) was 11.2 µM, the “Growth inhibition rate at day 16 after initiation of administration” value ([6]; 10 mg/kg/day) was 16.4% and the “Growth inhibition rate at day 16 after initiation of administration” value ([6]; 30 mg/kg/day) was 57.0%. The “death by the end of the administration period” value ([6]; 100 mg/kg, once daily for 14 days) was “no death occurred”, the “Growth inhibition rate at day 16 after initiation of administration” value ([6]; 100 mg/kg/day) was 81.7% and the “Growth inhibition rate at day 13 after initiation of administration” value ([7]; 25 mg/kg/day) was 44.8%. The “Growth inhibition rate at day 13 after initiation of administration” value ([7]; 50 mg/kg/day) was 95.3%.
Work on `COc1ccc(S(=O)(=O)Nc2ccccc2/C=C\c2cccnc2)cc1` [Example 2 (cis), 3-[2-[2-[[(p-Methoxyphenyl)sulfonyl]amino]phenyl]ethenyl]pyridine] yielded an IC50 [1] of 4.86 mg/L (≈ 13.3 µM), an IC50 [2] of 6.48 mg/L (≈ 17.7 µM) and an IC50 [3] of 4.81 mg/L (≈ 13.1 µM).
In the case of `COc1ccc(/C=C\c2cc(OC)c(OC)c(OC)c2)cc1` [(Z)-3,4,5-trimethoxy-4'-methoxystilbene], the tubulin polymerization-inhibitory activity (tubulin) is given as “have tubulin polymerization-inhibitory activity”.
For `COc1ccc(S(=O)(=O)N(C(C)=O)c2ccccc2/C=C/c2cc[n+]([O-])cc2)cc1` [Example 57, (E)-4-[2-[2-[N-Acetyl-N-[(p-methoxyphenyl)sulfonyl]amino]phenyl]ethenyl]pyridine 1-oxide], the “T/C (median survival time, treated/control)” value ([4]; 25 mg/kg) was 115%, the “T/C (median survival time, treated/control)” value ([4]; 50 mg/kg) was 160% and the “T/C (median survival time, treated/control)” value ([4]; 100 mg/kg) was 215%. The “T/C (median survival time, treated/control)” value ([4]; 200 mg/kg) was 250%.
For `COc1ccc(S(=O)(=O)Nc2ccccc2/C=C/c2ccccn2)cc1` [Example 4, (E)-2-[2-[2-[[(p-Methoxyphenyl)sulfonyl]amino]phenyl]ethenyl]pyridine], the IC50 [1] was 0.12 mg/L (≈ 0.327 µM), the IC50 [2] was 0.16 mg/L (≈ 0.437 µM) and the IC50 [3] was 0.16 mg/L (≈ 0.437 µM).
